# Test results as given in PubChem BioAssay AID330 (DTP/NCI, 2004).
# Values joined by “and” are separate entries in the source; they are usually repeats but may differ in a detail not shown here. Identical values can stand only once. Toxic doses and inconclusive results are not listed. Square brackets hold non-standard residues; d marks the D form. Peptide text beside a SMILES is read from it. ξ: configuration not given here. ξQ = NC(=O)CCC(N)C(=O)O
# System: P388 leukemia ip, CD2F1 mice, survival T/C
# Experiment: NCI In Vivo Anticancer Drug Screen. Data for tumor model P388 Leukemia (intraperitoneal) in CD2F1 (CDF1) mice
# Settings: endpoint: median survival time, higher = longer survival
# Procedure, shortened: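 Mice carrying the transplanted tumor received test compound or vehicle. Survival was recorded in each group, and the value is the treated-group measurement divided by that of the vehicle-treated control group.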
# [1] = dose: 60.0 mg/kg/injection, schedule: Q01DX005 (ip), vehicle: saline with Tween-80
# [2] = dose: 120.0 mg/kg/injection, schedule: Q01DX005 (ip), vehicle: saline with Tween-80
# [3] = dose: 240.0 mg/kg/injection, schedule: Q01DX005 (ip), vehicle: saline with Tween-80
# [4] = dose: 60.0 mg/kg/injection, schedule: Q01DX005 (ip), vehicle: Klucel (hydroxypropylcellulose) (HPC)
# [5] = dose: 120.0 mg/kg/injection, schedule: Q01DX005 (ip), vehicle: Klucel (hydroxypropylcellulose) (HPC)
# [6] = dose: 240.0 mg/kg/injection, schedule: Q01DX005 (ip), vehicle: Klucel (hydroxypropylcellulose) (HPC)
# [7] = dose: 50.0 mg/kg/injection, schedule: Q01DX009 (ip), vehicle: Klucel (hydroxypropylcellulose) (HPC)
# [8] = dose: 100.0 mg/kg/injection, schedule: Q01DX009 (ip), vehicle: Klucel (hydroxypropylcellulose) (HPC)
# [9] = dose: 200.0 mg/kg/injection, schedule: Q01DX009 (ip), vehicle: Klucel (hydroxypropylcellulose) (HPC)
# [10] = dose: 100.0 mg/kg/injection, schedule: Q04DX003 (ip), vehicle: saline with Tween-80
# [11] = dose: 200.0 mg/kg/injection, schedule: Q04DX003 (ip), vehicle: saline with Tween-80
# [12] = dose: 8.75 mg/kg/injection, schedule: Q01DX005 (ip), vehicle: Klucel (hydroxypropylcellulose) (HPC)
# [13] = dose: 17.5 mg/kg/injection, schedule: Q01DX005 (ip), vehicle: Klucel (hydroxypropylcellulose) (HPC)
# [14] = dose: 35.0 mg/kg/injection, schedule: Q01DX005 (ip), vehicle: Klucel (hydroxypropylcellulose) (HPC)
# [15] = dose: 100.0 mg/kg/injection, schedule: Q01DX009 (ip), vehicle: saline
# [16] = dose: 50.0 mg/kg/injection, schedule: Q01DX005 (ip), vehicle: Klucel (hydroxypropylcellulose) (HPC)
# [17] = dose: 100.0 mg/kg/injection, schedule: Q01DX005 (ip), vehicle: Klucel (hydroxypropylcellulose) (HPC)
structure (smiles),measurement,setting,value
Cc1nc2[nH]cc(C)c2c(=O)[nH]1,T/C,[1],103 % of control
same,T/C,[2],97 % of control
same,T/C,[3],105 % of control
COc1ccc(C(C)(OC)c2cc(C(C)(C)C)c(O)c(C(C)(C)C)c2)cc1 (stereo not given),T/C,"dose: 50.0 mg/kg/injection, schedule: Q01DX005 (ip), vehicle: saline + Tween-80 + alcohol",104 % of control
same,T/C,"dose: 100.0 mg/kg/injection, schedule: Q01DX005 (ip), vehicle: saline + Tween-80 + alcohol",101 % of control
same,T/C,"dose: 200.0 mg/kg/injection, schedule: Q01DX005 (ip), vehicle: saline + Tween-80 + alcohol",102 % of control
O=c1c(Cc2ccccc2)c([O-])[n+](Cc2ccccc2)c(-c2ccccc2)n1-c1ccccc1,T/C,[4],98 % of control
same,T/C,[5],91 % of control
same,T/C,[6],90 % of control
COc1cc2c(cc1O)C(=O)CCC2,T/C,[7],102 % of control
same,T/C,[8],103 % of control
same,T/C,[9],104 % of control
CCNC(=O)c1ccccc1S(C)=O (stereo not given),T/C,[1],99 % of control
same,T/C,[2],111 % of control
same,T/C,[3],104 % of control
Oc1ccc(C2c3ccccc3Oc3ccccc32)c2ccccc12,T/C,"dose: 100.0 mg/kg/injection, schedule: Q01DX001 (ip), vehicle: gum acacia",93 % of control
same,T/C,"dose: 200.0 mg/kg/injection, schedule: Q01DX001 (ip), vehicle: gum acacia",105 % of control
same,T/C,"dose: 400.0 mg/kg/injection, schedule: Q01DX001 (ip), vehicle: gum acacia",101 % of control
CC(Cl)C(=O)c1ccc(N)cc1 (stereo not given),T/C,[7],99 % of control
same,T/C,[8],99 % of control
same,T/C,[9],99 % of control
CC(C)(C)SC(=O)CCl,T/C,[10],116 % of control
same,T/C,[11],89 % of control
CC1CN2C(=O)C1(c1ccccc1)C(=O)NC2=S (stereo not given),T/C,[7],98 % of control
same,T/C,[8],107 % of control
same,T/C,[9],100 % of control
CCC(=O)n1c(Cl)c(C=O)c2ccccc21,T/C,"dose: 100.0 mg/kg/injection, schedule: Q01DX001 (ip), vehicle: Klucel (hydroxypropylcellulose) (HPC)",99 % of control
same,T/C,"dose: 200.0 mg/kg/injection, schedule: Q01DX001 (ip), vehicle: Klucel (hydroxypropylcellulose) (HPC)",102 % of control
same,T/C,"dose: 400.0 mg/kg/injection, schedule: Q01DX001 (ip), vehicle: Klucel (hydroxypropylcellulose) (HPC)",94 % of control
CC(COC(=O)c1cccc([N+](=O)[O-])c1C(=O)O)c1ccccc1 (stereo not given),T/C,"dose: 100.0 mg/kg/injection, schedule: Q04DX002 (ip), vehicle: saline with Tween-80",98 % of control
same,T/C,"dose: 200.0 mg/kg/injection, schedule: Q04DX002 (ip), vehicle: saline with Tween-80",109 % of control
same,T/C,"dose: 400.0 mg/kg/injection, schedule: Q04DX002 (ip), vehicle: saline with Tween-80",110 % of control
COC(=O)CC1(C(=O)OC)Oc2ccc(Br)cc2C(=O)N1c1ccc(Br)cc1Cl (stereo not given),T/C,"dose: 50.0 mg/kg/injection, schedule: Q01DX005 (ip), vehicle: saline with Tween-80",96 % of control
same,T/C,"dose: 100.0 mg/kg/injection, schedule: Q01DX005 (ip), vehicle: saline with Tween-80",96 % of control
same,T/C,"dose: 200.0 mg/kg/injection, schedule: Q01DX005 (ip), vehicle: saline with Tween-80",91 % of control
COc1cc2c(c3oc(=O)cc(CCC(=O)O)c13)C1CC(=O)OC1O2 (stereo not given),T/C,[12],101 % of control
same,T/C,[13],100 % of control
same,T/C,[14],97 % of control
C=C(C)C(=O)N(CC)CC,T/C,[15],97 % of control
same,T/C,"dose: 200.0 mg/kg/injection, schedule: Q01DX009 (ip), vehicle: saline",102 % of control
CCCN(CCC)C1=CC(=O)C(N(CCC)CCC)=CC1=O,T/C,[16],117 % of control
same,T/C,[17],89 % of control
CC(C)Nc1nc(NCC2CC2)nc(ON2C(=O)CCC2=O)n1,T/C,"dose: 12.5 mg/kg/injection, schedule: Q01DX009 (ip), vehicle: saline with Tween-80",100 % of control
same,T/C,"dose: 25.0 mg/kg/injection, schedule: Q01DX009 (ip), vehicle: saline with Tween-80",99 % of control
same,T/C,"dose: 50.0 mg/kg/injection, schedule: Q01DX009 (ip), vehicle: saline with Tween-80",100 % of control and 86 % of control
same,T/C,"dose: 200.0 mg/kg/injection, schedule: Q01DX009 (ip), vehicle: saline with Tween-80",104 % of control
COc1ccc(C2c3cc4c(cc3OC(C)(O)C2C)OCO4)c(OC)c1 (stereo not given),T/C,[4],98 % of control
same,T/C,[5],97 % of control
same,T/C,[6],100 % of control
O=C(O)CC(O)(CC(=O)O)C(=O)O,T/C,"dose: 0.12 % in 0.5 ml injection vol, schedule: Q01DX009 (ip), vehicle: water",100 % of control
same,T/C,"dose: 0.25 % in 0.5 ml injection vol, schedule: Q01DX009 (ip), vehicle: water",99 % of control and 94 % of control
same,T/C,"dose: 0.5 % in 0.5 ml injection vol, schedule: Q01DX009 (ip), vehicle: water",88 % of control and 90 % of control and 94 % of control
NC(=O)CCC(N)C(=O)NCC(=O)O (stereo not given) (H-[ξQ]-Gly-OH),T/C,"dose: 12.5 mg/kg/injection, schedule: Q01DX005 (ip), vehicle: distilled water + Tween-80",106 % of control
same,T/C,"dose: 25.0 mg/kg/injection, schedule: Q01DX005 (ip), vehicle: distilled water + Tween-80",109 % of control
same,T/C,"dose: 50.0 mg/kg/injection, schedule: Q01DX005 (ip), vehicle: distilled water + Tween-80",104 % of control
same,T/C,"dose: 100.0 mg/kg/injection, schedule: Q01DX005 (ip), vehicle: distilled water + Tween-80",109 % of control
same,T/C,"dose: 200.0 mg/kg/injection, schedule: Q01DX005 (ip), vehicle: distilled water + Tween-80",113 % of control
CCC(Br)C(=O)SC(C)(C)C (stereo not given),T/C,[10],111 % of control
same,T/C,[11],106 % of control
S=P(Nc1ccccc1)(Nc1ccccc1)c1ccccc1,T/C,[8],103 % of control
same,T/C,[9],106 % of control
same,T/C,"dose: 400.0 mg/kg/injection, schedule: Q01DX009 (ip), vehicle: Klucel (hydroxypropylcellulose) (HPC)",95 % of control
CCNCc1c(C)[nH]c2ccc(N(C)C)cc2c1=O,T/C,"dose: 50.0 mg/kg/injection, schedule: Q01DX009 (ip), vehicle: saline",92 % of control
same,T/C,[15],108 % of control
CN(C)C(=O)CC/C=C/C1C=CCCN1Cc1ccccc1 (stereo not given),T/C,[12],103 % of control
same,T/C,[13],100 % of control
same,T/C,[14],100 % of control
Nc1ccc(N)c(N)n1,T/C,"dose: 6.25 mg/kg/injection, schedule: Q01DX009 (ip), vehicle: saline",95 % of control
same,T/C,"dose: 12.5 mg/kg/injection, schedule: Q01DX009 (ip), vehicle: saline",104 % of control
same,T/C,"dose: 25.0 mg/kg/injection, schedule: Q01DX009 (ip), vehicle: saline",100 % of control
Cc1ccc(C)c2c1[nH]c1c(C)c3ccncc3c(C)c12,T/C,"dose: 100.0 mg/kg/injection, schedule: Q01DX001 (ip), vehicle: saline with Tween-80",100 % of control
same,T/C,"dose: 200.0 mg/kg/injection, schedule: Q01DX001 (ip), vehicle: saline with Tween-80",104 % of control
same,T/C,"dose: 400.0 mg/kg/injection, schedule: Q01DX001 (ip), vehicle: saline with Tween-80",120 % of control
Fc1ccccc1N=Cc1ccc(C=Nc2ccccc2F)cc1,T/C,"dose: 15.0 mg/kg/injection, schedule: Q01DX005 (ip), vehicle: Klucel (hydroxypropylcellulose) (HPC)",100 % of control
same,T/C,"dose: 30.0 mg/kg/injection, schedule: Q01DX005 (ip), vehicle: Klucel (hydroxypropylcellulose) (HPC)",92 % of control
same,T/C,[4],95 % of control
CCOc1c(N=Nc2ccccc2[N+](=O)[O-])c(C)nn1C(N)=S,T/C,"dose: 15.0 mg/kg/injection, schedule: Q01DX005 (ip), vehicle: Klucel + Tween-80",100 % of control
same,T/C,"dose: 30.0 mg/kg/injection, schedule: Q01DX005 (ip), vehicle: Klucel + Tween-80",89 % of control
same,T/C,"dose: 60.0 mg/kg/injection, schedule: Q01DX005 (ip), vehicle: Klucel + Tween-80",86 % of control and 90 % of control
C=C1C[C@]2(C)c3ccccc3NC(=O)[C@H]12,T/C,[16],105 % of control
same,T/C,[17],107 % of control
same,T/C,"dose: 200.0 mg/kg/injection, schedule: Q01DX005 (ip), vehicle: Klucel (hydroxypropylcellulose) (HPC)",98 % of control
O=C1C=CC=C2C(=O)C(c3ccccc3)(c3ccccc3)[N+]([O-])=C12,T/C,"dose: 50.0 mg/kg/injection, schedule: Q04DX002 (ip), vehicle: saline",100 % of control
same,T/C,"dose: 100.0 mg/kg/injection, schedule: Q04DX002 (ip), vehicle: saline",98 % of control
same,T/C,"dose: 200.0 mg/kg/injection, schedule: Q04DX002 (ip), vehicle: saline",111 % of control
